Key:
Aqueous solubility = format: physicochemical
[1] = humans, cited from earlier work

Row | Structure (SMILES) | aqueous solubility, descriptive term (Aqueous solubility) | solubility (Aqueous solubility; aqueous) [µg/mL] | effect of food on absorption ([1]; administered with food) | half-life of tizoxanide in plasma ([1]; after oral nitazoxanide or nitazoxanide plus tizoxanide)
1 | CC(=O)Oc1ccccc1C(=O)Nc1ncc([N+](=O)[O-])s1 [nitazoxanide, 2-(acetolyloxy)-N-(5-nitro-2-thiazolyl)benzamide] | practically insoluble | < 100 | approximately doubled with food | 
2 | O=C(Nc1ncc([N+](=O)[O-])s1)c1ccccc1O [tizoxanide] |  |  |  | approximately 1.5 hours

Source: patent publication US10577337B2, “Compositions and methods of treatment with prodrugs of tizoxanide, an analogue or salt thereof” (Romark Laboratories, L.C., priority 2014, dated 2020)
